Data reported in patent US6043058A, “Preparation of cyclic depsipeptide compounds and a novel cyclic depsipeptide” (Maiji Seika Kaisha Ltd., priority 1996, dated 2000).

How the values were obtained:
[1] = Classification by basicity, acidity or neutrality; assay type: physicochemical
Source text: (§1) Physico-chemical properties of PF […] substance, PF […] substance and PF […] substance thus obtained are given below: […]

[2] = system: fowl roundworms; assay: Anthelmintic activity; assay type: in vivo; conditions: parasite not named at this place; stated in words only
[3] = Solubilities (physico-chemical properties); assay type: physicochemical
Source text: as §1

CC(C)C[C@H]1C(=O)O[C@H](C)C(=O)N(C)[C@@H](CC(C)C)C(=O)O[C@H](C)C(=O)N(C)[C@@H](CC(C)C)C(=O)O[C@H](C)C(=O)N(C)[C@@H](CC(C)C)C(=O)O[C@H](C)C(=O)N1C [PF 1022F substance]
Classification by basicity, acidity or neutrality [1]: Neutral substance | Anthelmintic activities (general statement) [2]: having anthelmintic activities | Solubility in organic solvents ([3]; chloroform, acetone, ethyl acetate, methanol and dimethylsulfoxide): Soluble | Solubility in n-hexane ([3]; solvent: n-hexane): Insoluble | Solubility in water ([3]; solvent: water): Insoluble
